Where two headings read alike, the source gives them in different places.
Tests used:
[1] = solubility; format: physicochemical
[2] = test system: gastric lesions; format: in vivo, male Wistar rats; conditions: 4 consecutive days; for mean severity: scale 0 (no lesion) to 5 (perforations)
Experimental: Male Wistar rats weighing 180 g were randomized into groups of 10. Three doses of each compound were administered. One group received the vehicle alone (10 ml/kg b.w.). Each dose was given orally for four days consecutively and the rats were sacrificed on the fifth day for necropsy. The ulcerogenic effect was evaluated by the following scale:
(1) each haemorrhagic point at least 1 mm in diameter was scored as 1 lesion,
(2) haemorrhagic points less than 1 mm in diameter were scored in the following manner:
(c) 20 to 29=three lesions
By means of this scale it was possible to obtain the gastric damage index:
I=mean no. of lesions+mean of severity+% incidence/10

[3] = test system: Mice; conditions: mouse, in vivo
[4] = test system: carrageenin-induced oedema; test: carrageenin-induced oedema test (anti-inflammatory activity); format: in vivo, albino male Wistar rats
Experimental: This effect was evaluated by means of an experimental model reproducing acute inflammation: for this purpose the carrageenin- induced oedema test was employed following the method described by C.
Albino male Wistar rats weighing 140-160 g were caged for 10 days at 22±1° C. and given a balanced diet and water ad libitum. Eighteen hours before the experiment the animals were randomized into groups of ten and fasted but with free access to water. Each dose was tested in three groups of rats. Each compound was given either orally, by gavage, or parenterally--intraperitoneal injection--administering as follows:
controls: 0.5% carboxymethylcellulose suspension in physiological saline, 10 ml/kg
treated: suspension of the compounds to be tested in the same vehicle and at the same volume (10 ml/kg) used for the controls at the doses specified below.
One hour after administration of the compounds and vehicle, in order to provoke the oedema for determining the protective effect of the substances under examination, each rat received, by subcutaneous injection into the plantar surface of the left paw, 0.1 ml of 1% sterile carrageenin suspension.

[5] = test system: brewers' yeast-induced hyperthermia; test: antipyretic activity, brewers' yeast-induced hyperthermia; format: in vivo, albino male Wistar rats
Experimental: The animals were caged under the same conditions as those described in the preceding tests. Five hours following […], determined by a rectal probe connected to a YSI thermometer (73 ATP model, Yellow Springs Instrument Company) were selected for the experiment. The animals were then randomized into groups of 10 and the compounds under examination and the vehicle were administered via the oral and parenteral routes testing each dose in two groups. Body temperature was determined at one, two and three hours after administration of the substances. […]

[6] = test system: Rats; conditions: rat, in vivo
[7] = test system: phenyl-p-quinone-induced writhing (abdominal contractions); test: phenylquinone-induced writhing test (analgesic activity), compound given 30 min before phenyl-p-quinone; format: in vivo, male Wistar rats
Experimental: Male Wistar rats weighing 110±5 g were caged for 10 days at 22±1° C. and given a balanced diet with free access to water. Twenty-four hours before the experiment the animals were randomized into groups of 10 and fasted for 14 hours but with free access to water. Each dose was tested in 3 groups of rats. Thirty minutes following administration either orally or parenterally of the products to be tested and the vehicle alone (0.5% carboxymethyl-cellulose in physiological saline) in the control animals, each rat was given 2 ml of a 5% absolute ethanol aqueous solution containing 0.36% of phenyl-p-quinone (Sigma Chemical Company) in order to provoke writhings. Fifteen minutes after administration of phenyl-p-quinone the number of contractions were counted for 20 minutes. The inhibiting effect of the compounds under examination on the abdominal contractions induced by phenyl-p-quinone was calculated by the following formula: % protection= [formula]
Table V lists the tested compounds, doses, routes of administration and their efficacy expressed as percentage of protection, taking into account that phenyl-p-quinone was administered thirty minutes after the compounds.

SMILES: CCOC(=O)CNC(=O)Cc1ccc(C(=O)c2ccc(C)cc2)n1C [Compound 1-b, 1-methyl-5-p-toluoylpyrrole-2-acetamidoacetic acid ethyl ester]
- Solubility [1]: soluble in the usual organic solvents

SMILES: Cc1ccc(C(=O)c2ccc(CC(=O)NNCC(=O)N3CCN(C)CC3)n2C)cc1 [Compound 1-o, 1-methyl-5-p-toluoylpyrrole-2-acetic acid-2 [N-(4-methyl-1-piperazinyl)acetamide] hydrazide]
- mean no. of lesions ([2]; 50 mg/Kg orally): 1
- gastric damage index ([2]; 50 mg/Kg orally, I=mean no. of lesions+mean of severity+% incidence/10): 9
- mean severity ([2]; 50 mg/Kg orally): 1
- mean no. of lesions ([2]; 100 mg/Kg orally): 2
- mean severity ([2]; 100 mg/Kg orally): 1
- mean no. of lesions ([2]; 200 mg/Kg orally): 2
- LD50 ([3]; ip): 590 mg/kg
- LD50 ([3]; po): 910 mg/kg
- oedema % inhibition ([4]; 25 mg/Kg per os, 2 h): 37.1%
- oedema % inhibition ([4]; 25 mg/Kg per os, 4 h): 42.0%
- oedema % inhibition ([4]; 25 mg/Kg per os, 6 h): 44.0%
- oedema % inhibition ([4]; 25 mg/Kg per os, 24 h): 12.1%
- oedema % inhibition ([4]; 25 mg/Kg per os, 48 h): 0.0%
- oedema % inhibition ([4]; 25 mg/Kg per os, 72 h): 0.0%
- oedema % inhibition ([4]; 25 mg/Kg, Table IV (route not given), 2 h): 39.0%
- oedema % inhibition ([4]; 25 mg/Kg, Table IV (route not given), 4 h): 37.1%
- oedema % inhibition ([4]; 25 mg/Kg, Table IV (route not given), 6 h): 36.0%
- oedema % inhibition ([4]; 25 mg/Kg, Table IV (route not given), 24 h): 11.1%
- oedema % inhibition ([4]; 25 mg/Kg, Table IV (route not given), 48 h): 0.0%
- oedema % inhibition ([4]; 25 mg/Kg, Table IV (route not given), 72 h): 0.0%
- oedema % inhibition ([4]; 50 mg/Kg per os, 2 h): 49.2%
- oedema % inhibition ([4]; 50 mg/Kg per os, 4 h): 50.1%
- oedema % inhibition ([4]; 50 mg/Kg per os, 6 h): 50.0%
- oedema % inhibition ([4]; 50 mg/Kg per os, 24 h): 22.1%
- oedema % inhibition ([4]; 50 mg/Kg per os, 48 h): 4.5%
- oedema % inhibition ([4]; 50 mg/Kg per os, 72 h): 0.0%
- oedema % inhibition ([4]; 50 mg/Kg, Table IV (route not given), 2 h): 52.1%
- oedema % inhibition ([4]; 50 mg/Kg, Table IV (route not given), 4 h): 55.0%
- oedema % inhibition ([4]; 50 mg/Kg, Table IV (route not given), 6 h): 43.0%
- oedema % inhibition ([4]; 50 mg/Kg, Table IV (route not given), 24 h): 17.9%
- oedema % inhibition ([4]; 50 mg/Kg, Table IV (route not given), 48 h): 0.0%
- oedema % inhibition ([4]; 50 mg/Kg, Table IV (route not given), 72 h): 0.0%
- oedema % inhibition ([4]; 100 mg/Kg per os, 2 h): 70.1%
- oedema % inhibition ([4]; 100 mg/Kg per os, 4 h): 73.4%
- oedema % inhibition ([4]; 100 mg/Kg per os, 6 h): 77.5%
- oedema % inhibition ([4]; 100 mg/Kg per os, 24 h): 33.5%
- oedema % inhibition ([4]; 100 mg/Kg per os, 48 h): 8.6%
- oedema % inhibition ([4]; 100 mg/Kg per os, 72 h): 0.0%
- oedema % inhibition ([4]; 100 mg/Kg, Table IV (route not given), 2 h): 79.1%
- oedema % inhibition ([4]; 100 mg/Kg, Table IV (route not given), 4 h): 78.0%
- oedema % inhibition ([4]; 100 mg/Kg, Table IV (route not given), 6 h): 77.3%
- oedema % inhibition ([4]; 100 mg/Kg, Table IV (route not given), 24 h): 24.1%
- oedema % inhibition ([4]; 100 mg/Kg, Table IV (route not given), 48 h): 0.0%
- oedema % inhibition ([4]; 100 mg/Kg, Table IV (route not given), 72 h): 0.0%
- % Temperature decrease ([5]; 50 mg/Kg i.p., 1 h): 13.0%
- % Temperature decrease ([5]; 50 mg/Kg i.p., 2 h): 27.5%
- % Temperature decrease ([5]; 50 mg/Kg i.p., 3 h): 39.6%
- % Temperature decrease ([5]; 50 mg/Kg per os, 1 h): 12.0%
- % Temperature decrease ([5]; 50 mg/Kg per os, 2 h): 23.1%
- % Temperature decrease ([5]; 50 mg/Kg per os, 3 h): 35.2%
- % Temperature decrease ([5]; 75 mg/Kg i.p., 1 h): 18.0%
- % Temperature decrease ([5]; 75 mg/Kg i.p., 2 h): 27.0%
- % Temperature decrease ([5]; 75 mg/Kg i.p., 3 h): 49.6%
- % Temperature decrease ([5]; 75 mg/Kg per os, 1 h): 16.0%
- % Temperature decrease ([5]; 75 mg/Kg per os, 2 h): 25.2%
- % Temperature decrease ([5]; 75 mg/Kg per os, 3 h): 40.2%
- % Temperature decrease ([5]; 100 mg/Kg i.p., 1 h): 30.1%
- % Temperature decrease ([5]; 100 mg/Kg i.p., 2 h): 45.0%
- % Temperature decrease ([5]; 100 mg/Kg i.p., 3 h): 62.1%
- % Temperature decrease ([5]; 100 mg/Kg per os, 1 h): 29.1%
- % Temperature decrease ([5]; 100 mg/Kg per os, 2 h): 33.7%
- % Temperature decrease ([5]; 100 mg/Kg per os, 3 h): 59.0%
- LD50 ([6]; ip): 700 mg/kg
- LD50 ([6]; po): 978 mg/kg
- % Protection ([7]; 5 mg/Kg i.p.): 35.1%
- % Protection ([7]; 5 mg/Kg per os): 29.3%
- % Protection ([7]; 10 mg/Kg i.p.): 63.9%
- % Protection ([7]; 10 mg/Kg per os): 60.4%
- % Protection ([7]; 20 mg/Kg i.p.): 87.0%
- % Protection ([7]; 20 mg/Kg per os): 86.2%

SMILES: COc1ccc2c(c1)c(CC(=O)O)c(C)n2C(=O)c1ccc(Cl)cc1 [Indomethacin, reference compound]
- oedema % inhibition ([4]; 2.5 mg/Kg per os, 2 h): 20.6%
- oedema % inhibition ([4]; 2.5 mg/Kg per os, 4 h): 33.7%
- oedema % inhibition ([4]; 2.5 mg/Kg per os, 6 h): 25.2%
- oedema % inhibition ([4]; 2.5 mg/Kg per os, 24 h): 6.0%
- oedema % inhibition ([4]; 2.5 mg/Kg per os, 48 h): 0.0%
- oedema % inhibition ([4]; 2.5 mg/Kg per os, 72 h): 0.0%
- oedema % inhibition ([4]; 2.5 mg/Kg, Table IV (route not given), 2 h): 25.7%
- oedema % inhibition ([4]; 2.5 mg/Kg, Table IV (route not given), 4 h): 38.0%
- oedema % inhibition ([4]; 2.5 mg/Kg, Table IV (route not given), 6 h): 30.0%
- oedema % inhibition ([4]; 2.5 mg/Kg, Table IV (route not given), 24 h): 5.0%
- oedema % inhibition ([4]; 2.5 mg/Kg, Table IV (route not given), 48 h): 0.0%
- oedema % inhibition ([4]; 2.5 mg/Kg, Table IV (route not given), 72 h): 0.0%
- oedema % inhibition ([4]; 5 mg/Kg per os, 2 h): 34.3%
- oedema % inhibition ([4]; 5 mg/Kg per os, 4 h): 45.9%
- oedema % inhibition ([4]; 5 mg/Kg per os, 6 h): 42.1%
- oedema % inhibition ([4]; 5 mg/Kg per os, 24 h): 4.2%
- oedema % inhibition ([4]; 5 mg/Kg per os, 48 h): 0.0%
- oedema % inhibition ([4]; 5 mg/Kg per os, 72 h): 0.0%
- oedema % inhibition ([4]; 5 mg/Kg, Table IV (route not given), 2 h): 39.0%
- oedema % inhibition ([4]; 5 mg/Kg, Table IV (route not given), 4 h): 50.1%
- oedema % inhibition ([4]; 5 mg/Kg, Table IV (route not given), 6 h): 48.0%
- oedema % inhibition ([4]; 5 mg/Kg, Table IV (route not given), 24 h): 7.0%
- oedema % inhibition ([4]; 5 mg/Kg, Table IV (route not given), 48 h): 0.0%
- oedema % inhibition ([4]; 5 mg/Kg, Table IV (route not given), 72 h): 0.0%
- oedema % inhibition ([4]; 10 mg/Kg per os, 2 h): 66.4%
- oedema % inhibition ([4]; 10 mg/Kg per os, 4 h): 53.2%
- oedema % inhibition ([4]; 10 mg/Kg per os, 6 h): 51.6%
- oedema % inhibition ([4]; 10 mg/Kg per os, 24 h): 20.0%
- oedema % inhibition ([4]; 10 mg/Kg per os, 48 h): 6.0%
- oedema % inhibition ([4]; 10 mg/Kg per os, 72 h): 0.0%
- oedema % inhibition ([4]; 10 mg/Kg, Table IV (route not given), 2 h): 70.8%
- oedema % inhibition ([4]; 10 mg/Kg, Table IV (route not given), 4 h): 66.6%
- oedema % inhibition ([4]; 10 mg/Kg, Table IV (route not given), 6 h): 65.0%
- oedema % inhibition ([4]; 10 mg/Kg, Table IV (route not given), 24 h): 16.0%
- oedema % inhibition ([4]; 10 mg/Kg, Table IV (route not given), 48 h): 0.0%
- oedema % inhibition ([4]; 10 mg/Kg, Table IV (route not given), 72 h): 0.0%

Reference: patent publication US4882349A, “Pyrrolacetic amides having antiinflammatory activity” (priority 1982, dated 1989)
